From US6013283A (priority 1997, dated 2000)

Assay: Water solubility (dissolution in water)
Experimental: Stability of this compound was determined by dissolving small amounts in water, pH 7.8 phosphate buffer and methanol.
The stability of the product is determined by dissolving in deionized water and pH 7.26 phosphate buffer.

In the case of `Nc1c2c(nc3ccccc13)CCCC2` [Tacrine, tacrine], the “WATER SOLUBILITY (in words)” value is reported as “Insoluble”.
